For series [1], the target named is T1, fibrils of β-amyloid peptide (human Aβ1–42) (Homo sapiens, UniProt P05067).
T1 construct: amyloid β protein fragment 1–42 (MW = 4514.04); purchased Merck-Sigma-Aldrich
Put plainly: Fluorescence titration of sensors with β-amyloid fibrils (Kd by non-linear fitting). The conditions noted are these: for Kd: fibrils of β-amyloid peptide, sensor 1.0 × 10^−6 M, protein 0 to 2.0 × 10^−6 M, ICT band excitation/emission maxima, read-out: Binding constants values (Kd) and standard deviations. The format is binding. On the procedure:
Amyloid fibrils from human Aβ1–42 peptide were prepared using a procedure that combines several protocols described in the literature. A 2.2 × 10^−4 M solution of commercially available Aβ1–42 peptide was prepared in a small volume of 100 mM sodium phosphate buffer (pH = 7.04) containing EDTA in concentration 10 mM. This solution was incubated at 37 °C during 72 h in a dry bath supported on an orbital shaker working at 200 rpm. […] Subsequently, 10 μL of the freshly prepared amyloid beta fibrils (c = 1.0 × 10^−4 M) were added to each of the solutions containing the sensors. After a stabilization period of 10 min after each fibril addition at 37 °C, and then equilibration time of 5 min at room temperature, fluorescence emission spectra were recorded for each sensor at their excitation maxima.

Series [2] relates to caspase-3 activity in HEK293-Tau3R cells. Put plainly: Caspase-3 activity in cells treated with okadaic acid (Ac-DEVD-AMC substrate). It is filed as cell-based, human. The following applies: for Caspase-3 activation induced by okadaic acid: 25 nM okadaic acid with compound at 10 or 100 nM; for Decrease of caspase-3 activity compared to cells treated with okadaic acid alone: 100 nM compound, 25 nM okadaic acid, p < 0.05. The protocol: HEK293-Tau3R cells in logarithmic growth phase were digested with trypsin at a concentration of 0.25% and then resuspended in the medium and subcultured in Petri dishes (100 × 15 mm) at a seeding density of 1.5 × 10^5 cells/mL. […] Upon completion of the treatment, cells were collected, washed twice with PBS (pH 7.4) and pelleted by centrifugation at 1000× g for 5 min. The pellet was then resuspended in PBS and centrifuged again at 1000× g for 10 min at 4 °C to remove the supernatant. The resulting cell pellets were lysed in a buffer containing 10 mM Tris–HCl (pH 7.5) with 0.5% CHAPS, 1 mM MgCl2, 1 mM EGTA, 1 mM EDTA, 10% glycerol, 5 mM β-mercaptoethanol, 1 mM DTT, 1 mM phenylmethylsulfonyl fluoride (PMSF), 100 μM leupeptin and 1 μM pepstatin. Following a 30 min incubation on ice, the lysates were clarified by centrifugation at 13,000× g for 5 min. Protein concentrations in the supernatants were determined using the bicinchoninic acid (BCA) assay.
The caspase 3 activity assay performed using the known fluorogenic substrate Ac-DEVD-AMC. HEK293-Tau3R cells were harvested, washed with ice-cold PBS and lysed in 100 μL of lysis buffer containing 50 mM HEPES (pH 7.4), 100 mM NaCl, 0.1% CHAPS, 10% glycerol, 10 mM DTT, 0.1 mM EDTA and protease inhibitors (1 μg/μL each of leupeptin, pepstatin and aprotinin). The lysates were, sonicated and centrifuged at 14,000× g for 15 min at 4 °C. For the assay, 20 μg of cellular protein from the lysates were incubated with 20 µM caspase 3 substrate in assay buffer (50 mM HEPES, pH 7.4, 100 mM NaCl, 0.1% CHAPS, 10% glycerol, 10 mM DTT) for 2 h at 37 °C. Substrate cleavage was monitored using a microplate fluorescence reader with excitation at 360 nm and emission at 460 nm. Caspase activity was determined based on the cleavage of the fluorogenic substrate and is expressed as fluorescence arbitrary units.

The target in another series is T2, Aβ1–42 peptide (Homo sapiens, UniProt P05067).
T2 construct: amyloid β protein fragment 1–42 (MW = 4514.04); purchased Merck-Sigma-Aldrich
T2 sequence (P05067 672-713 limits assumed): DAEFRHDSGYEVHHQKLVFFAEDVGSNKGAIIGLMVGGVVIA
The series is described as follows: Aβ1–42 aggregation inhibition, Thioflavin T fluorescence. The format is biochemical. The following applies: 0.5 μM compound; Figure 11. The protocol:
A 0.5 mg/mL solution of Aβ1–42 peptide in 10% aqueous ammonium hydroxide was sonicated for 30 min to achieve monomerization. Solvent evaporation in a SpeedVac afforded a thin film that was dissolved in 60 mM NaOH, adjusting its concentration to 20 μM, as a stock solution. For aggregation inhibition experiments, 2 μM Aβ1–42 peptide was mixed with the styrylquinolines 6 and incubated for 4 days at 37 °C. The degree of Aβ aggregation was determined using Thioflavin-T fluorescence analysis.
All assays were done on flat black 96-well plates. […] Peptide Aβ1–42 alone in buffer reaction served as a control for the screen. Fluorescence values were measured at 37 °C in replicates using a microplate reader, with the measurement taken at 24 h intervals for 72 h. […] All assays were performed at least twice to ensure reproducibility.

Series [3] addresses T3, AcPHF6 (Ac-VQIVYK-NH2) tau-hexapeptide (Homo sapiens, UniProt P10636).
T3 construct: purchased Bachem (Bubendorf BL, Switzerland)
Put plainly: AcPHF6 aggregation inhibition, Thioflavin T fluorescence. It is filed as biochemical. The following applies: 1 μM, non-toxic concentration; Figure 12. The protocol:
This in vitro assay was performed using the N-acetylated and C-amidated hexapeptide AcPHF6 (Ac-VQIVYK-NH2), derived from the ^306VQIVYK^311 sequence found in the native […]. This region of the tau protein is involved in fibril aggregation processes and is commonly used as a model for screening tau aggregation inhibitors.
In brief, AcPHF6 peptide was dissolved in 50 mM phosphate buffer (pH 7.4) at a concentration of 1 mM and vortexed to obtain a homogeneous solution. For aggregation inhibition experiments, 100 μM AcPHF6 peptide was mixed with compounds 6 and incubated at 37 °C for 4 days. The degree of AcPHF6 aggregation was determined using Thioflavin-T fluorescence analyses.
Briefly, the screen of the styrylquinolines was performed based on Thioflavin T fluorescence. All assays were done on flat black 96-well plates. […] Immediately before the experiment, 1 μM heparin was added to initiate AcPHF6 aggregation. AcPHF6 alone in buffer reaction served as a control for the screen. Fluorescence values were taken at 24 h intervals for 72 h, at 37 °C and in replicates, using a microplate reader. […] All assays were performed at least twice to ensure reproducibility.

Series [4] addresses T4, amyloid-beta plaques (Homo sapiens, UniProt P05067). The series is described as follows: Ex vivo staining of temporal neocortex of an Alzheimer's disease patient, amyloid-beta antibody co-labelling. The conditions noted are these: temporal neocortex of an AD patient; 20 μM compound, 2 h. The protocol: (§1) AD human tissue samples were analyzed within the context of a previous study that utilized fixed coronal sections to investigate the progression of Alzheimer’s disease. Brain tissue samples from AD patients were obtained from the Banco de Tejidos Fundación CIEN (Dr. A. Rábano, Área de Neuropatología, Centro Alzheimer, Fundación Reina Sofía, Madrid, Spain). Immediately after removal, the brains were fixed in cold 4% paraformaldehyde in 0.1 M phosphate buffer (pH 7.4). After 2 h, the tissue was sectioned into small blocks and post-fixed in the same medium at 4 °C for 24–48 h. Serial coronal sections (50 μm thick) were prepared using a vibratome (St. Louis, MO, USA), cryoprotected in a 30% sucrose solution in 0.1 M phosphate buffer and stored in an ethylene glycol/glycerol solution at −20 °C until use. […]
(§2) Image acquisition was performed with a Zeiss LSM 710 confocal laser scanning system (Carl Zeiss Microscopy GmbH, Jena, Germany). They were recorded at 0.5 μm intervals (63 × objective) through separate channels, and ZEN 2012 software (Zeiss) was then used to construct composite images from each optical series by combining the images recorded through the different channels (image resolution 1024 × 1024 pixels; pixel size 188 nm). […]

In series [5] the target is T5, neurofibrillary tangles (phosphorylated tau) (Homo sapiens, UniProt P10636). The series is described as follows: Ex vivo staining of temporal neocortex of an Alzheimer's disease patient, AT8 antibody co-labelling. The following applies: temporal neocortex of an AD patient; AT8 antibody detects phosphorylated tau. The protocol: as §1, §2
T5 sequence (P10636 623-758 limits assumed): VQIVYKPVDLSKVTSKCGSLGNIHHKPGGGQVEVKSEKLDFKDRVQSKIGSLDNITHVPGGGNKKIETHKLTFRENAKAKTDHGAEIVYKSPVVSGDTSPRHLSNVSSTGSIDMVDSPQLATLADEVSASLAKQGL
Series [6] concerns the target T4, amyloid-beta plaques. Put plainly: Ex vivo staining of somatosensory cortex of APP/PS1 transgenic mice (confocal microscopy). The conditions noted are these: plaques most distinctly labeled at 458 nm excitation, also 488 and 555 nm, none at 594 or 405 nm.
Text: Compound 6b was chosen for an initial labeling study by assessing its binding properties in the somatosensory cortex of APP/PS1 transgenic mice, a model of Alzheimer’s disease that develops amyloid-beta deposits in the brain from 6 to 7 months of age. […] Amyloid-beta plaques were most distinctly labeled at an excitation wavelength of 458 nm, with effective staining also being observed at 488 nm and 555 nm (Figure 8A–D). In contrast, no staining was detected when exciting at 594 nm or 405 nm (Figure 8E,F).
The free-floating sections were rinsed in 0.1 M phosphate buffer (PB) and incubated for 2 h at room temperature with a 20 μM solution of each compound 6, prepared by diluting a 1.0 × 10^−4 M stock solution in DMSO with phosphate buffer. After incubation, the sections were rinsed again in 0.1 M phosphate buffer, mounted using ProLong Gold Antifade Reagent (Invitrogen Corporation, Carlsbad, CA, USA), and stored at −20 °C.
as §2

The target in another series is β-amyloid protein. The following applies: read-out: ThT-β-amyloid protein dissociation constant Kd, cited from earlier work.
The target in series [7] is T5, neurofibrillary tangles (phosphorylated tau). The arrangement: method as in PMID 16914838. The conditions noted are these: brain samples from AD patients; cited from earlier work.
The next series relates to HEK293-Tau3R cells. Put plainly: Cell viability, MTT assay. It is filed as cell-based, human. The following applies: 10 to 50 nM for 24 h.

Like-named read-outs stand apart in the source and are kept apart here.

T1 sequence (P05067 672-713 limits assumed): as the sequence (P05067 672-713 limits assumed) above
T4 sequence (P05067 672-711 limits assumed): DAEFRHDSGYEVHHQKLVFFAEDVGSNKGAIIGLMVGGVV

For “(E)-2-((2-(2-(4-(Dimethylamino)naphthalen-1-yl)vinyl)quinolin-6-yl)-methylene)malononitrile [6g]”, the “Enhancement of fluorescence emission in the presence of beta-amyloid protein fibrils” value in [1] (excitation wavelength characteristic of each compound, Figure 6) was “greater difficulty in binding to the beta sheet structure of the protein”. Also, in [2], the “Caspase-3 activation induced by okadaic acid” value (“Caspase-3 activation induced” below) is “significantly reduced” and the “Decrease of caspase-3 activity compared to cells treated with okadaic acid alone” value is recorded as “more than 50%”.
For `CC(=O)OCCN(CCOC(C)=O)c1ccc(/C=C/c2ccc3cc(C=C(C#N)C#N)ccc3n2)cc1` [6e, (E)-((4-(2-(6-(2,2-Dicyanovinyl)quinolin-2-yl)vinyl)phenyl)azanediyl)bis(ethane-2,1-diyl) diacetate], on Aβ1–42 peptide, the “Aβ1–42 aggregation inhibition, ranking” value is given as “most active compound”. In addition, the Kd in series [1] is 10.2 ± 1.53 µM. Also, in [2], the “Caspase-3 activation induced” value is listed as “significantly reduced” and the “Decrease of caspase-3 activity compared to cells treated with okadaic acid alone” value is “very similar results”. The “AcPHF6 aggregation inhibition, ranking” value in series [3] is recorded as “best result”.
For `CCN(CC)c1ccc(/C=C/c2ccc3cc(C=C(C#N)C#N)ccc3n2)cc1` [6b, (E)-2-((2-(4-(Diethylamino)styryl)quinolin-6-yl)methylene)malononitrile], on amyloid-beta plaques [4], the “Labeling of amyloid-beta plaques” value is reported as “specifically labeled amyloid-beta plaques”. The dissociation constant Kd in series [1] came to 7.93 ± 0.63 µM. The “Caspase-3 activation induced” value in [2] is “significantly reduced”. The “Labeling of neurofibrillary tangles” value in series [5] was “did not label neurofibrillary tangles”. Further, at amyloid-beta plaques [6], the “Labeling of amyloid-beta deposits” value is listed as “specific binding to β-sheet amyloid structures”.
For `N#CC(C#N)=Cc1ccc2nc(/C=C/c3ccc(N4CCCCC4)cc3)ccc2c1` [6c, (E)-2-((2-(4-(Piperidin-1-yl)styryl)quinolin-6-yl)methylene)malononitrile], the “Labeling of amyloid-beta plaques” value on amyloid-beta plaques [4] is listed as “specifically labeled amyloid-beta plaques”. Moreover, in series [1], the Kd is 8.19 ± 0.61 µM. In addition, the “Labeling of neurofibrillary tangles” value in series [5] is reported as “did not label neurofibrillary tangles”.
Take `N#CC(C#N)=Cc1ccc2nc(/C=C/c3ccc(N4CCOCC4)cc3)ccc2c1` [6d, (E)-2-((2-(4-Morpholinostyryl)quinolin-6-yl)methylene)malononitrile]: the Kd in series [1] stood at 6.6 ± 0.79 µM. Further, in series [2], the “Caspase-3 activation induced” value is “significantly reduced”.
Turning to `CN(C)c1ccc(/C=C/c2ccc3cc(C=C(C#N)C#N)ccc3n2)cc1` [6a, (E)-2-((2-(4-(Dimethylamino)styryl)quinolin-6-yl)methylene)malononitrile], the Kd in series [1] was determined as 2.43 ± 0.32 µM.
Consider `Cc1ccc2c(c1)sc(-c1ccc(N(C)C)cc1)[n+]2C` [ThT, Thioflavin T], for which the Kd was 0.8 µM on β-amyloid protein (ref 57), 2.56 µM at β-amyloid protein (ref 58), 30.4 µM at β-amyloid protein (ref 59) and 46 µM on β-amyloid protein (ref 60).
Take Thioflavin S: in series [7], the “Binding to beta-sheet structures and phosphorylated tau” value is “bind both beta-sheet structures and phosphorylated tau”.
Turning to `C=C1[C@@H](O)[C@@H]2O[C@]3(CC[C@H](/C=C/[C@@H](C)[C@@H]4CC(C)=C[C@@]5(O[C@H](C[C@@](C)(O)C(=O)O)CC[C@H]5O)O4)O3)CC[C@H]2O[C@@H]1[C@@H](O)C[C@H](C)[C@H]1O[C@@]2(CCCCO2)CC[C@H]1C` [okadaic acid, reference compound], the “Concentrations at which a marked decline in cell viability was observed” value in the series on HEK293-Tau3R cells is “above 30 nM”. Also, in [2] (okadaic acid 10–50 nM), the “Concentration from which caspase 3 activity began to rise” value was at least 25 nM.

The values are drawn from article PMC12428582, “2-Styrylquinolines with Push-Pull Architectures as Sensors for β-Amyloid Aggregation with Theranostic Properties” (International Journal of Molecular Sciences, 2025).
